Where “and” joins values, the source holds several entries; their conditions need not be identical. Identical values can stand only once. Like-named read-outs stand apart in the source and are kept apart here.
Assay: Pharmacokinetics in CD-1 mice (plasma concentrations, PK parameters)
Type: in vivo
Details: for concentration at 5 min / concentration at 0.5 h / concentration at 1 h / concentration at 2 h / concentration at 4 h / concentration at 24 h / concentration at 6 h: read-out: Concentration; for AUC(0-inf): read-out: AUCInf; for AUC(0-t): read-out: AUClast; for MRT inf: read-out: MRTInf_obs
Procedure: Pharmacokinetics for I-127, I-172 and I-210 were determined in Sprague Dawley rats or CD-1 mice by dosing intravenous (IV), subcutaneous (SC) or per oral (PO) using facility SOPs and sampling plasma at required time points. Species, formulation, route of administration and time points samples are listed below for each compound.
Compounds were extracted from plasma, injected on reverse phase HPLC, eluted with a gradient from 5% to 95% acetonitrile in water and quantified by mass spectrometry with internal standard. Data are expressed in ng compound per mL of plasma.

[1] = CD-1, mouse, plasma, iv, 2 mg/kg, mouse (CD1) iv 2 mg/kg, Mean
[2] = CD-1, mouse, plasma, iv, 2 mg/kg, mouse (CD1) iv 2 mg/kg, individual Mouse 1-3
[3] = CD-1, mouse, plasma, sc, 30 mg/kg, mouse (CD1) sc 30 mg/kg, Mean
[4] = CD-1, mouse, plasma, sc, 30 mg/kg, mouse (CD1) sc 30 mg/kg, individual Mouse 7-9
[5] = mouse (CD1) iv 2 mg/kg, individual Mouse 1-3, 2 mg/kg
[6] = mouse (CD1) sc 30 mg/kg, individual Mouse 7-9, 30 mg/kg

concentration at 5 min (CD-1, mouse, plasma, iv, 2 mg/kg, mouse (CD1) iv 2 mg/kg, 5 min, Mean): 3420 ng/mL
concentration at 5 min (CD-1, mouse, plasma, iv, 2 mg/kg, mouse (CD1) iv 2 mg/kg, 5 min, individual Mouse 1-3): 4150 ng/mL
concentration at 0.25 h (CD-1, mouse, plasma, iv, 2 mg/kg, mouse (CD1) iv 2 mg/kg, 0.25 h, Mean): 387 ng/mL
concentration at 0.25 h (CD-1, mouse, plasma, iv, 2 mg/kg, mouse (CD1) iv 2 mg/kg, 0.25 h, individual Mouse 1-3): 444 ng/mL
concentration at 0.5 h (CD-1, mouse, plasma, iv, 2 mg/kg, mouse (CD1) iv 2 mg/kg, 0.5 h, Mean): 123 ng/mL
concentration at 0.5 h (CD-1, mouse, plasma, iv, 2 mg/kg, mouse (CD1) iv 2 mg/kg, 0.5 h, individual Mouse 1-3): 130 ng/mL
concentration at 1 h (CD-1, mouse, plasma, iv, 2 mg/kg, mouse (CD1) iv 2 mg/kg, 1 h, Mean): 34.7 ng/mL
concentration at 1 h (CD-1, mouse, plasma, iv, 2 mg/kg, mouse (CD1) iv 2 mg/kg, 1 h, individual Mouse 1-3): 34.3 ng/mL
concentration at 2 h (CD-1, mouse, plasma, iv, 2 mg/kg, mouse (CD1) iv 2 mg/kg, 2 h, Mean): 12.6 ng/mL
concentration at 2 h (CD-1, mouse, plasma, iv, 2 mg/kg, mouse (CD1) iv 2 mg/kg, 2 h, individual Mouse 1-3): 11.5 ng/mL
concentration at 4 h (CD-1, mouse, plasma, iv, 2 mg/kg, mouse (CD1) iv 2 mg/kg, 4 h, Mean): 7.77 ng/mL
concentration at 4 h (CD-1, mouse, plasma, iv, 2 mg/kg, mouse (CD1) iv 2 mg/kg, 4 h, individual Mouse 1-3): 9.04 ng/mL
concentration at 8 h (CD-1, mouse, plasma, iv, 2 mg/kg, mouse (CD1) iv 2 mg/kg, 8 h, Mean): 2.46 ng/mL
concentration at 8 h (CD-1, mouse, plasma, iv, 2 mg/kg, mouse (CD1) iv 2 mg/kg, 8 h, individual Mouse 1-3): 2.62 ng/mL
concentration at 24 h (CD-1, mouse, plasma, iv, 2 mg/kg, mouse (CD1) iv 2 mg/kg, 24 h, individual Mouse 1-3): 2.55 ng/mL
half-life [1]: 2.53 h
AUC(0-inf) [1]: 1070 ng·h/mL
AUC(0-t) [1]: 1060 ng·h/mL
C0 (CD-1, mouse, plasma, iv, 2 mg/kg, mouse (CD1) iv 2 mg/kg, Mean, read-out: C0): 10200 ng/mL
MRT inf [1]: 0.61 h
half-life [2]: 2.71 h
AUC(0-inf) [2]: 1270 ng·h/mL
AUC(0-t) [2]: 1260 ng·h/mL
C0 (CD-1, mouse, plasma, iv, 2 mg/kg, mouse (CD1) iv 2 mg/kg, individual Mouse 1-3, read-out: C0): 12700 ng/mL
concentration at 0.25 h (CD-1, mouse, plasma, sc, 30 mg/kg, mouse (CD1) sc 30 mg/kg, 0.25 h, Mean): 43.1 ng/mL
concentration at 0.25 h (CD-1, mouse, plasma, sc, 30 mg/kg, mouse (CD1) sc 30 mg/kg, 0.25 h, individual Mouse 7-9): 34.6 ng/mL
concentration at 0.5 h (CD-1, mouse, plasma, sc, 30 mg/kg, mouse (CD1) sc 30 mg/kg, 0.5 h, Mean): 64.8 ng/mL
concentration at 0.5 h (CD-1, mouse, plasma, sc, 30 mg/kg, mouse (CD1) sc 30 mg/kg, 0.5 h, individual Mouse 7-9): 71.9 ng/mL
concentration at 1 h (CD-1, mouse, plasma, sc, 30 mg/kg, mouse (CD1) sc 30 mg/kg, 1 h, Mean): 64.8 ng/mL
concentration at 1 h (CD-1, mouse, plasma, sc, 30 mg/kg, mouse (CD1) sc 30 mg/kg, 1 h, individual Mouse 7-9): 52.6 ng/mL
concentration at 2 h (CD-1, mouse, plasma, sc, 30 mg/kg, mouse (CD1) sc 30 mg/kg, 2 h, Mean): 50.8 ng/mL
concentration at 2 h (CD-1, mouse, plasma, sc, 30 mg/kg, mouse (CD1) sc 30 mg/kg, 2 h, individual Mouse 7-9): 48 ng/mL
concentration at 4 h (CD-1, mouse, plasma, sc, 30 mg/kg, mouse (CD1) sc 30 mg/kg, 4 h, Mean): 37.3 ng/mL
concentration at 4 h (CD-1, mouse, plasma, sc, 30 mg/kg, mouse (CD1) sc 30 mg/kg, 4 h, individual Mouse 7-9): 33.3 ng/mL
concentration at 6 h (CD-1, mouse, plasma, sc, 30 mg/kg, mouse (CD1) sc 30 mg/kg, 6 h, Mean): 19.4 ng/mL
concentration at 6 h (CD-1, mouse, plasma, sc, 30 mg/kg, mouse (CD1) sc 30 mg/kg, 6 h, individual Mouse 7-9): 16 ng/mL
concentration at 24 h (CD-1, mouse, plasma, sc, 30 mg/kg, mouse (CD1) sc 30 mg/kg, 24 h, Mean): 5.33 ng/mL
concentration at 24 h (CD-1, mouse, plasma, sc, 30 mg/kg, mouse (CD1) sc 30 mg/kg, 24 h, individual Mouse 7-9): 5.4 ng/mL
half-life [3]: 8 h
AUC(0-inf) [3]: 538 ng·h/mL
AUC(0-t) [3]: 476 ng·h/mL
Cmax (CD-1, mouse, plasma, sc, 30 mg/kg, mouse (CD1) sc 30 mg/kg, Mean, read-out: Cmax): 71.2 ng/mL
MRT inf [3]: 9.4 h
Tmax (CD-1, mouse, plasma, sc, 30 mg/kg, mouse (CD1) sc 30 mg/kg, Mean, read-out: Tmax): 0.833 h
half-life [4]: 8.79 h
AUC(0-inf) [4]: 491 ng·h/mL
AUC(0-t) [4]: 422 ng·h/mL
Cmax (CD-1, mouse, plasma, sc, 30 mg/kg, mouse (CD1) sc 30 mg/kg, individual Mouse 7-9, read-out: Cmax): 71.9 ng/mL
MRT inf [4]: 10.4 h
Tmax (CD-1, mouse, plasma, sc, 30 mg/kg, mouse (CD1) sc 30 mg/kg, individual Mouse 7-9, read-out: Tmax): 0.5 h
Concentration (mouse (CD1) iv 2 mg/kg, 5 min, individual Mouse 1-3, 2 mg/kg): 2810 ng/mL and 3290 ng/mL
Concentration (mouse (CD1) iv 2 mg/kg, 0.25 h, individual Mouse 1-3, 2 mg/kg): 314 ng/mL and 404 ng/mL
Concentration (mouse (CD1) iv 2 mg/kg, 0.5 h, individual Mouse 1-3, 2 mg/kg): 102 ng/mL and 136 ng/mL
Concentration (mouse (CD1) iv 2 mg/kg, 1 h, individual Mouse 1-3, 2 mg/kg): 31.5 ng/mL and 38.2 ng/mL
Concentration (mouse (CD1) iv 2 mg/kg, 2 h, individual Mouse 1-3, 2 mg/kg): 11.7 ng/mL and 14.6 ng/mL
Concentration (mouse (CD1) iv 2 mg/kg, 4 h, individual Mouse 1-3, 2 mg/kg): 6.56 ng/mL and 7.70 ng/mL
Concentration (mouse (CD1) iv 2 mg/kg, 8 h, individual Mouse 1-3, 2 mg/kg): 2.07 ng/mL and 2.69 ng/mL
Concentration (mouse (CD1) iv 2 mg/kg, 24 h, individual Mouse 1-3, 2 mg/kg): BLOQ
AUC_%Extrap_obs (mouse (CD1) iv 2 mg/kg, Mean): 0.826%
AUClast/D (mouse (CD1) iv 2 mg/kg, Mean): 532 h·ng/mL per mg/kg
Cl_obs (mouse (CD1) iv 2 mg/kg, Mean): 31.8 mL/min/kg
Vss_obs (mouse (CD1) iv 2 mg/kg, Mean): 1.15 L/kg
AUCInf [5]: 877 ng·h/mL and 1067 ng·h/mL
AUC_%Extrap_obs [5]: 0.805% and 0.818% and 0.856%
AUClast [5]: 870 ng·h/mL and 1058 ng·h/mL
AUClast/D [5]: 632 h·ng/mL per mg/kg and 435 h·ng/mL per mg/kg and 529 h·ng/mL per mg/kg
C0 [5]: 8401 ng/mL and 9383 ng/mL
MRTInf_obs [5]: 0.332 h and 0.362 h and 1.13 h
T1/2 [5]: 2.40 h and 2.48 h
Vss_obs [5]: 0.522 L/kg and 0.826 L/kg and 2.11 L/kg
Concentration (mouse (CD1) po 30 mg/kg, 0.25 h, individual Mouse 4-6): BLOQ
Concentration (mouse (CD1) po 30 mg/kg, 0.5 h, individual Mouse 4-6): BLOQ
Concentration (mouse (CD1) po 30 mg/kg, 1 h, individual Mouse 4-6): BLOQ
Concentration (mouse (CD1) po 30 mg/kg, 2 h, individual Mouse 4-6): BLOQ
Concentration (mouse (CD1) po 30 mg/kg, 4 h, individual Mouse 4-6): BLOQ
Concentration (mouse (CD1) po 30 mg/kg, 8 h, individual Mouse 4-6): BLOQ
Concentration (mouse (CD1) po 30 mg/kg, 24 h, individual Mouse 4-6): BLOQ
Concentration (mouse (CD1) sc 30 mg/kg, 0.25 h, individual Mouse 7-9, 30 mg/kg): 40.0 ng/mL and 54.6 ng/mL
Concentration (mouse (CD1) sc 30 mg/kg, 0.5 h, individual Mouse 7-9, 30 mg/kg): 57.6 ng/mL and 64.8 ng/mL
Concentration (mouse (CD1) sc 30 mg/kg, 1 h, individual Mouse 7-9, 30 mg/kg): 63.0 ng/mL and 78.7 ng/mL
Concentration (mouse (CD1) sc 30 mg/kg, 2 h, individual Mouse 7-9, 30 mg/kg): 46.5 ng/mL and 58.0 ng/mL
Concentration (mouse (CD1) sc 30 mg/kg, 4 h, individual Mouse 7-9, 30 mg/kg): 37.0 ng/mL and 41.6 ng/mL
Concentration (mouse (CD1) sc 30 mg/kg, 6 h, individual Mouse 7-9, 30 mg/kg): 20.7 ng/mL and 21.5 ng/mL
Concentration (mouse (CD1) sc 30 mg/kg, 24 h, individual Mouse 7-9, 30 mg/kg): 4.74 ng/mL and 5.85 ng/mL
AUC_%Extrap_obs (mouse (CD1) sc 30 mg/kg, Mean): 11.5%
AUClast/D (mouse (CD1) sc 30 mg/kg, Mean): 15.9 h·ng/mL per mg/kg
F (mouse (CD1) sc 30 mg/kg, Mean): 3.34%
AUCInf [6]: 522 ng·h/mL and 601 ng·h/mL
AUC_%Extrap_obs [6]: 14.0% and 9.60% and 11.1%
AUClast [6]: 472 ng·h/mL and 535 ng·h/mL
AUClast/D [6]: 14.1 h·ng/mL per mg/kg and 15.7 h·ng/mL per mg/kg and 17.8 h·ng/mL per mg/kg
Cmax [6]: 63.0 ng/mL and 78.7 ng/mL
F [6]: 3.05% and 3.25% and 3.74%
MRTInf_obs [6]: 8.61 h and 9.13 h
T1/2 [6]: 7.34 h and 7.89 h
Tmax [6]: 1 h
SMILES: NC(=O)c1nn(-c2ccc(C(=O)NCCCCCNCCNc3cccc4c3C(=O)N(C3CCC(=O)NC3=O)C4=O)cc2)cc1NC(=O)c1coc(-c2ccnc(NCC(F)(F)F)c2)n1 (stereo not shown) [I-172, N-[3-carbamoyl-1-[4-[5-[2-[[2-(2,6-dioxo-3-piperidyl)-1,3-dioxo-isoindolin-4-yl]amino]ethylamino]pentylcarbamoyl]phenyl]pyrazol-4-yl]-2-[2-(2,2,2-trifluoroethylamino)-4-pyridyl]oxazole-4-carboxamide]
Cl_obs [5]: 26.2 mL/min/kg and 38.0 mL/min/kg and 31.2 mL/min/kg
